We go through 4 compounds from US20070037883A1, “Therapeutic compositions” (priority 2003, published 2007).

The subject of one data set is Nox4 mRNA. Kind of data set: Nox4 mRNA expression in cultured mouse VSMCs, real-time PCR. Particulars: 500 nmol/L oligonucleotide, 24 h, FIG. 9. The format is cell-based. The protocol: Mouse VSMCs were plated sparsely onto 96-well ViewPlates (Packard Bioscience) (for superoxide measurements) or onto 35 mm culture dishes (for RNA extraction) such that they were 30-50% confluent at the time of transfection 24 h later. At the time of transfection, cells were washed with serum- and antibiotic free DMEM and were then incubated in serum- and antibiotic-free DMEM containing 8 μL/mL Oligofectamine Transfection Reagent (Invitrogen Life Technologies) complexed with the antisense (0-1000 nmol/L), mismatch (500 nmol/L) or scrambled (560 nmol/L) oligonucleotides. […]
RNA was extracted from cultured and freshly isolated mouse VSMCs, and from freshly isolated whole aortas using RNAwiz (Ambion) according to the manufacturer's protocol. RNA concentrations were determined spectrophotometrically by measuring absorbance at 260 nm. […]
Real-time PCR and the ΔΔCt method were used as previously described to examine mRNA expression of Nox4 and Nox1 relative to a “reference” sample. […] 18S ribosomal RNA was used as the internal standard for each reaction and was detected with commercially available rodent 18S primers and a 5′-VIC-labeled probe (PE Biosystems; Table 7).
Nox4 was amplified in duplex with 18S in PCR mixtures (25 μL final volume) containing 1× TaqMan (registered trademark). […] Reactions were performed and fluorescence monitored in the ABI Prism 7700 Sequence Detector (PE Biosystems).

Data set [1] concerns the target T1, gp91phox-containing NADPH-oxidase in the mouse macrophage cell line J774 (Mus musculus, UniProt Q61093).
T1 construct: endogenous in cells; host or cells: J774 mouse macrophage cell line (intact cells)
T1 sequence (Q61093 2-570 limits assumed): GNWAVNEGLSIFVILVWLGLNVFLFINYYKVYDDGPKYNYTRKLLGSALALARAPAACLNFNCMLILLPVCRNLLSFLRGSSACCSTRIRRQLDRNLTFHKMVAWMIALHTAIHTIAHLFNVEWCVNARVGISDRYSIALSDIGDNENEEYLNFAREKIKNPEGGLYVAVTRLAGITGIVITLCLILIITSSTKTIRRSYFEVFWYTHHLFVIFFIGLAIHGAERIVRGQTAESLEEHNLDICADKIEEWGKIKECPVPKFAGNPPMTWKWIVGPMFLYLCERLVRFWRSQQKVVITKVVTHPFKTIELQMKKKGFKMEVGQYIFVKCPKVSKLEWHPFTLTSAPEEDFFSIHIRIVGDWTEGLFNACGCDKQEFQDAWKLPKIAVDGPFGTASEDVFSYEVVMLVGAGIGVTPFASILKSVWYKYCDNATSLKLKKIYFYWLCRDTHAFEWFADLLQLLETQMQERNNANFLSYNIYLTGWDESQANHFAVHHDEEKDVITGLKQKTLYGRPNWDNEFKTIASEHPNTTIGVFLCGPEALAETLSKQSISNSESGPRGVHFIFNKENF
T1 sequence (Q61462 1-192 partner): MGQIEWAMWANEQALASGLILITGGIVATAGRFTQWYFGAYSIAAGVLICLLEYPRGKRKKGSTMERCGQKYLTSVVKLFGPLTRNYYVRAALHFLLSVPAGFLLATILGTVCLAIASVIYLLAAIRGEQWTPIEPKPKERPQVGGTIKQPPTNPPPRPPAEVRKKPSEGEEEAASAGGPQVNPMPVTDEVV
Kind of data set: NADPH oxidase activity in intact J774 mouse macrophages. Particulars: FIG. 2b. The format is cell-based.

For data set [2], the target named is endothelial nitric oxide synthase (Homo sapiens, UniProt P29474). Particulars: read-out: IC50, inhibition of endothelial nitric oxide synthase; Stuehr et al. 1991; Wang et al. 1993; cited from earlier work.
endothelial nitric oxide synthase, sequence (P29474 2-1203): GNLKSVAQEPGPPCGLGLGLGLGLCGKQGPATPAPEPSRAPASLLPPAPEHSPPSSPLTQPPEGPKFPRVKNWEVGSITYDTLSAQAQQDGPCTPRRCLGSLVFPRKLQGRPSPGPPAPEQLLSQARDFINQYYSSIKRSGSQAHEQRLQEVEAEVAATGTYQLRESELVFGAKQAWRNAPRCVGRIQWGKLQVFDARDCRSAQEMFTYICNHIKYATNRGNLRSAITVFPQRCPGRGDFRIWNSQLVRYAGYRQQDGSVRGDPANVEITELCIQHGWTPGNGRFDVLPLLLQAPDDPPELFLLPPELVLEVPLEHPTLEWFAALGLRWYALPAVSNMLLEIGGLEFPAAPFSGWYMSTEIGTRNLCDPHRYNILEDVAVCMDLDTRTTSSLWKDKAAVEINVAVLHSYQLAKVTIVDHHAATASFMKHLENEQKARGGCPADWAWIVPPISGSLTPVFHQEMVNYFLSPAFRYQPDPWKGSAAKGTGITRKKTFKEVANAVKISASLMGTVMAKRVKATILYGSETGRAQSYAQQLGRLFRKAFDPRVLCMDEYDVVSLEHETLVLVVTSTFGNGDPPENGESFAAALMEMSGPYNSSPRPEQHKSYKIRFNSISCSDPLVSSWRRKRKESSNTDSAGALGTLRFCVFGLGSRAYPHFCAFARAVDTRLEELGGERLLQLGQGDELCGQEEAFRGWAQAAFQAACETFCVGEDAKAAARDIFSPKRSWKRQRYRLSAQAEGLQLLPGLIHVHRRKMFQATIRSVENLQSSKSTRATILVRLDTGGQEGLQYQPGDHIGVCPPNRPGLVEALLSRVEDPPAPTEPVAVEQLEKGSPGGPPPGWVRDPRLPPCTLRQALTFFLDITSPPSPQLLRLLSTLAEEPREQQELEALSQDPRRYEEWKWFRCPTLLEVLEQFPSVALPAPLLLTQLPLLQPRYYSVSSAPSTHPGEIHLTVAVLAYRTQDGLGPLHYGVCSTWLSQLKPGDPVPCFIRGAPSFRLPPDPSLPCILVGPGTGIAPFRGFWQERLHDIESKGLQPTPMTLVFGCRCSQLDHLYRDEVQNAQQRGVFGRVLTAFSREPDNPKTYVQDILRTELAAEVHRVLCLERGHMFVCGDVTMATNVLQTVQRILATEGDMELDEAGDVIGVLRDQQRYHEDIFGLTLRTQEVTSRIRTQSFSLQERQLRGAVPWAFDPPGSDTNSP

For the compound “+13/+33 mismatch: mismatch control oligonucleotide TAGGCCAGCAAGCTCCTACA [SEQ ID NO:18], differs in three base positions (chemistry not given here)”, in the data set on Nox4 mRNA, the “reduction in Nox4 mRNA expression” value is on record as “no effect”.

Consider “1-amino-4[[4[[4-chloro-6-[[n-sulfophenyl]amino]-1,3,5-triazin-2-yl]amino]-3-sulfophenyl]amino]-9,10-dihydro-9,10-dioxo-2-anthracene-sulfonic acid wherein n is 3 or 4 [Reactive blue-2]”, for which the “effect on gp91phox-containing NADPH-oxidase in J774 macrophages / phagocytic cells” value in data set [1] is on record as “ineffective”.

With `c1ccc2c(c1)[I+]c1ccccc1-2` [DPI, diphenyleneiodonium], in data set [2], the IC50 (usually the concentration needed to halve the response being measured) was 180 to 300 nM.

Regarding “+13/+33 scrambled: scrambled control oligonucleotide CGTCACGCTCAGCTCACCGT [SEQ ID NO:19], same base composition in random order (chemistry not given here)”, in the data set on Nox4 mRNA, the “reduction in Nox4 mRNA expression” value was “no effect”.
